According to ChEMBL document CHEMBL1157062, “Malyngolide dimer, a bioactive symmetric cyclodepside from the panamanian marine cyanobacterium Lyngbya majuscula” (J Nat Prod, 2010):

Tests used:
Plasmodium falciparum = assay: Antiplasmodial activity against Plasmodium falciparum W2 assessed as picogreen-DNA intercalation by microfluorimetric assay; assay type: functional, organism-based
[1] = Cytotoxicity against human NCI-H460 cells assessed as cell viability at 9 uM after 48 hrs by MTT assay; assay type: cell-based; conditions: read-out: Activity
[2] = Cytotoxicity against human NCI-H460 cells assessed as cell viability at 55 uM after 48 hrs by MTT assay; assay type: cell-based; conditions: read-out: Activity
[3] = molecular target: T1, NAD-dependent protein deacetylase sirtuin-2 (Homo sapiens) (UniProt Q8IXJ6); assay: Inhibition of SIRT2 at 50 uM
T1 sequence (whole entry): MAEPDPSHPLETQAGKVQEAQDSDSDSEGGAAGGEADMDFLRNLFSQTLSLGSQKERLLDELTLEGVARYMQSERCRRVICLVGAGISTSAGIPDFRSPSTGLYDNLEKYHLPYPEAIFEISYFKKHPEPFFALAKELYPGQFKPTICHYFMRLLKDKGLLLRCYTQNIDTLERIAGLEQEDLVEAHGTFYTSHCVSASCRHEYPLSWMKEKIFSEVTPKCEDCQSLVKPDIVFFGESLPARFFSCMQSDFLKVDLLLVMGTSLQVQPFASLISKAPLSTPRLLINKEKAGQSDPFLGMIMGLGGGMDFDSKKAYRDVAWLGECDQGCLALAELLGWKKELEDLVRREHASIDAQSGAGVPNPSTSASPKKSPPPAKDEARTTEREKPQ

[4] = molecular target: T1, NAD-dependent protein deacetylase sirtuin-2 (Homo sapiens); assay: Inhibition of SIRT2

| SMILES | IC50 (Plasmodium falciparum) | viability at 48 h, 9 µM [1] | viability at 48 h, 55 µM [2] | inhibition [3] | INH [4] |
| --- | --- | --- | --- | --- | --- |
| CCCCCCCCC[C@@]1(CO)CC[C@@H](C)C(=O)O[C@@](CO)(CCCCCCCCC)CC[C@@H](C)C(=O)O1 | 19 µM | 110% | 10% | 30% |  |
| CCCCCCCCCCC[C@]1(CO)CCCC(=O)O[C@](CO)(CCCCCCCCCCC)CCCC(=O)O1 |  |  |  |  | 0.176 µM |
